From patent publication US20090018194A1, “Use of antimicrobial agents derived from alliaceous plants for the prevention and control of crop diseases, post-harvest rot and as environmental disinifectant products” (DMC Research Center, S.L., priority 2007, published 2009)

How the values were obtained:
[1] = tested on: Salmonella typhimurium ATCC 13311; assay: agar diffusion test with impregnated cellulose discs; assay type: cell-based; conditions: incl. 6 mm disc
Penicillium italicum = assay: post-harvest rotting of inoculated oranges (Navelina), immersion treatment; assay type: in vivo
Procedure: This example considers the effectiveness of the active natural principles PTS and PTSO in two different doses for the control of post-harvest rotting of oranges ([…] variety), caused by controlled artificial inoculation with the fungi Penicillium digitatum, Penicillium expansum, Phytophthora citrophthora and Geotrichum candidum, the principal pathogens of this fruit. The inoculation of the oranges was carried out with suspensions of spores of the different wild fungal strains selected, according to the methodology described below. The first step was the isolation and identification of the fungal strains used in the study. The strains of filamentous fungi used in these tests (Penicillium digitatum, Penicillium italicum and Phytophthora citrophthora) were isolated from oranges affected by rot. In these isolation processes, it was not possible to detect any strain belonging to Geotrichum candidum, as a result of which it was necessary to obtain the latter substance from the Spanish Collection of Standard Cultures, where it is identified by reference CECT 1102. […] To promote the implantation of the inoculum of Geotrichum candidum, 200 ppm of cyclohexamide was added to the inoculum prior to its inoculation. […] The assessment of the effectiveness of PTS and PTSO comprised counting of the number of fruits affected by rot in the inoculated zone, to determine the percentage of fruit affected for each treatment and fungus inoculated, and expressing this effectiveness as a percentage of reduction of the affected fruit.

[2] = tested on: Micrococcus luteus ATCC 15307; assay: agar diffusion test with impregnated cellulose discs; assay type: cell-based; conditions: incl. 6 mm disc
[3] = tested on: Candida krusei ATCC 34135; assay: as above; assay type: cell-based; conditions: incl. 6 mm disc
[4] = tested on: Candida parapsilosis CCTM 1038; assay: as above; assay type: cell-based; conditions: incl. 6 mm disc
[5] = tested on: Aspergillus niger CECT 2700; assay: as above; assay type: cell-based; conditions: incl. 6 mm disc
[6] = tested on: Penicillium sp. (CPC-PT-2); assay: agar diffusion test, wild fungi isolated from crown rot in bananas; assay type: cell-based; conditions: incl. 6 mm disc
[7] = tested on: Penicillium sp. (CPC-PT-4); assay: as above; assay type: cell-based; conditions: incl. 6 mm disc
Botrytis cinerea = assay: field control of Botrytis in strawberries, foliar spraying; assay type: in vivo; conditions: after 12 days
FUNGI = assay: environmental disinfection of banana storage and ripening rooms by fogging, air sampling; conditions: fogging of 1500 ppm solution; for MICROBE COUNTS FUNGI CFU/dish: 80 liters collected/dish; for % REDUCTION OF ENVIRONMENTAL MICROBIOTA Fungal population: after vs before treatment
Procedure: (§1) A study was conducted to verify the environmental disinfecting capability of the compound PTS in rooms of a fruit and vegetable processing plant, in particular one that handled bananas. For test purposes, three separate rooms of the central were sampled, and the environmental quality was studied before and after the treatment with PTS. First, an environmental sample was taken in each room prior to the treatment, using an […]-Omega air sampling device manufactured by LCB, by suctioning a volume of air set at 80 L which impacted over the different cultivation media selected. The samples were taken in duplicate in the areas to be analyzed. PCA agar medium was used to count the total mesophilic aerobes, and the medium Rose Bengal agar was used to count the fungi. The environmental disinfectant treatment comprised fogging of a 1500 ppm solution of PTS. 5 liters of this solution were fogged for each 1000 m^3 of the room. […] Several hours after the fogging, the sampling operation was repeated in the different rooms that had been treated as described above. […] Once the incubation time had elapsed, the readings were taken by counting the microorganisms that appeared in each type of dish, expressed as cfu/dish.

Total mesophilic AEROBES = assay: as above; conditions: fogging of 1500 ppm solution; for MICROBE COUNTS Total mesophilic AEROBES CFU/dish: 80 liters collected/dish; for % REDUCTION OF ENVIRONMENTAL MICROBIOTA Population of total mesophilic aerobes: after vs before treatment
Procedure: as §1

[8] = 1600 ppm, 4 days at 20° C., title: treated with PTSO
[9] = 2500 ppm, 4 days at 20° C., title: treated with PTSO
[10] = Zone 1 of the ripening room after treatment
[11] = Zone 2 of the ripening room after treatment

## CCCSS(=O)(=O)CCC [PTSO, Propyl Propyl Thiosulfonate]
[1]; 60 ppm
  diameter of the microbial inhibition halo: 16 mm
[1]; 125 ppm
  diameter of the microbial inhibition halo: 17 mm
[1]; 250 ppm
  diameter of the microbial inhibition halo: 25 mm
[1]; 500 ppm
  diameter of the microbial inhibition halo: 25 mm
[1]; 1000 ppm
  diameter of the microbial inhibition halo: 27 mm
Penicillium italicum; [8]
  % Reduction: 80%
Penicillium italicum; [9]
  % Reduction: 85%

## CCCS[S+]([O-])CCC (stereo not shown) [PTS, Propyl Propyl Thiosulfinate]
[2]; 25 ppm
  diameter of the microbial inhibition halo: 19 mm
[2]; 50 ppm
  diameter of the microbial inhibition halo: 25 mm
[2]; 100 ppm
  diameter of the microbial inhibition halo: 32 mm
[3]; 25 ppm
  diameter of the microbial inhibition halo: 14 mm
[3]; 50 ppm
  diameter of the microbial inhibition halo: 18 mm
[3]; 100 ppm
  diameter of the microbial inhibition halo: 29 mm
[4]; 25 ppm
  diameter of the microbial inhibition halo: 0 mm
[4]; 50 ppm
  diameter of the microbial inhibition halo: 14 mm
[4]; 100 ppm
  diameter of the microbial inhibition halo: 17 mm
[5]; 25 ppm
  diameter of the microbial inhibition halo: 10 mm
[5]; 50 ppm
  diameter of the microbial inhibition halo: 13 mm
[5]; 100 ppm
  diameter of the microbial inhibition halo: 19 mm
[1]; 60 ppm
  diameter of the microbial inhibition halo: 11 mm
[1]; 125 ppm
  diameter of the microbial inhibition halo: 15 mm
[1]; 250 ppm
  diameter of the microbial inhibition halo: 22 mm
[1]; 500 ppm
  diameter of the microbial inhibition halo: 23 mm
[1]; 1000 ppm
  diameter of the microbial inhibition halo: 25 mm
[6]; 30 ppm
  diameter of the microbial inhibition halo: 0 mm
[6]; 60 ppm
  diameter of the microbial inhibition halo: 0 mm
[6]; 125 ppm
  diameter of the microbial inhibition halo: 0 mm
[6]; 250 ppm
  diameter of the microbial inhibition halo: 15 mm
[6]; 500 ppm
  diameter of the microbial inhibition halo: 25 mm
[6]; 1000 ppm
  diameter of the microbial inhibition halo: 25 mm
[7]; 30 ppm
  diameter of the microbial inhibition halo: 0 mm
[7]; 60 ppm
  diameter of the microbial inhibition halo: 11 mm
[7]; 125 ppm
  diameter of the microbial inhibition halo: 13 mm
[7]; 250 ppm
  diameter of the microbial inhibition halo: 20 mm
[7]; 500 ppm
  diameter of the microbial inhibition halo: 23 mm
[7]; 1000 ppm
  diameter of the microbial inhibition halo: 25 mm
Penicillium italicum; [8]
  % Reduction: 80%
  % of fruit affected: 20%
Penicillium italicum; 1600 ppm, 14 days at 20° C.
  % Reduction: 72%
  % of fruit affected: 28%
Penicillium italicum; 1666 ppm, 7 days at 20° C.
  % of fruit affected: 0%
Penicillium italicum; [9]
  % Reduction: 85%
  % of fruit affected: 15%
Penicillium italicum; 2500 ppm, 7 days at 20° C.
  % Reduction: 100%
  % of fruit affected: 0%
Penicillium italicum; 2500 ppm, 14 days at 20° C.
  % Reduction: 85%
  % of fruit affected: 15%
Botrytis cinerea; 2000 ppm
  % of fruit affected: 3.8%
Botrytis cinerea; 2000 ppm, 150 fruits
  No. of fruits affected: 6
Botrytis cinerea; 2400 ppm
  % of fruit affected: 3.1%
Botrytis cinerea; 2400 ppm, 148 fruits
  No. of fruits affected: 5
Botrytis cinerea; 4800 ppm
  % of fruit affected: 3.1%
Botrytis cinerea; 4800 ppm, 141 fruits
  No. of fruits affected: 4
Botrytis cinerea; 9600 ppm
  % of fruit affected: 2%
Botrytis cinerea; 9600 ppm, 114 fruits
  No. of fruits affected: 2
FUNGI; Entry room after treatment
  MICROBE COUNTS FUNGI CFU/m^3: 707 CFU/m^3
  MICROBE COUNTS FUNGI CFU/dish: 51 CFU/dish
FUNGI; Entry room
  % REDUCTION OF ENVIRONMENTAL MICROBIOTA Fungal population: 70%
FUNGI; [10]
  MICROBE COUNTS FUNGI CFU/m^3: 273 CFU/m^3
  MICROBE COUNTS FUNGI CFU/dish: 21 CFU/dish
FUNGI; Zone 1 of the ripening room
  % REDUCTION OF ENVIRONMENTAL MICROBIOTA Fungal population: 23%
FUNGI; [11]
  MICROBE COUNTS FUNGI CFU/m^3: 328 CFU/m^3
  MICROBE COUNTS FUNGI CFU/dish: 25 CFU/dish
FUNGI; Zone 2 of the ripening room
  % REDUCTION OF ENVIRONMENTAL MICROBIOTA Fungal population: 36%
Total mesophilic AEROBES; Entry room after treatment
  MICROBE COUNTS Total mesophilic AEROBES CFU/m^3: 314 CFU/m^3
  MICROBE COUNTS Total mesophilic AEROBES CFU/dish: 24 CFU/dish
Total mesophilic AEROBES; Entry room
  % REDUCTION OF ENVIRONMENTAL MICROBIOTA Population of total mesophilic aerobes: 65%
Total mesophilic AEROBES; [10]
  MICROBE COUNTS Total mesophilic AEROBES CFU/m^3: 287 CFU/m^3
  MICROBE COUNTS Total mesophilic AEROBES CFU/dish: 22 CFU/dish
Total mesophilic AEROBES; Zone 1 of the ripening room
  % REDUCTION OF ENVIRONMENTAL MICROBIOTA Population of total mesophilic aerobes: 69%
Total mesophilic AEROBES; [11]
  MICROBE COUNTS Total mesophilic AEROBES CFU/m^3: 1487 CFU/m^3
  MICROBE COUNTS Total mesophilic AEROBES CFU/dish: 96 CFU/dish
Total mesophilic AEROBES; Zone 2 of the ripening room
  % REDUCTION OF ENVIRONMENTAL MICROBIOTA Population of total mesophilic aerobes: 58%
